Experimental data from the NIST ThermoML archive (doi:10.1021/acs.jced.8b00132).
“And” between values parts separate entries of the source, which are not always exact repeats. Equal entries are not always repeated.

Conditions: Liquid, transient hot wire

O=C(C(F)(F)C(F)(F)F)C(F)(C(F)(F)F)C(F)(F)F [dodecafluoro-2-methylpentan-3-one]
Conditions	thermal conductivity
242.34 K, 5849 kPa	0.06998 W/m/K
242.34 K, 5853 kPa	0.06965 W/m/K
242.35 K, 208 kPa	0.06798 W/m/K
242.35 K, 212 kPa	0.06825 W/m/K
242.58 K, 60304 kPa	0.08223 W/m/K
242.58 K, 60314 kPa	0.08199 W/m/K
242.59 K, 33710 kPa	0.0767 W/m/K
242.59 K, 50797 kPa	0.08019 W/m/K
242.59 K, 50816 kPa	0.07983 W/m/K
242.59 K, 68418 kPa	0.08363 W/m/K
242.59 K, 68434 kPa	0.08369 W/m/K
242.6 K, 33703 kPa	0.07658 W/m/K
242.6 K, 41984 kPa	0.07877 W/m/K
242.6 K, 41989 kPa	0.07848 W/m/K
242.67 K, 25698 kPa	0.07459 W/m/K
242.68 K, 25706 kPa	0.07494 W/m/K
242.77 K, 18756 kPa	0.073 W/m/K
242.77 K, 18761 kPa	0.07312 W/m/K
242.79 K, 12031 kPa	0.07146 W/m/K
242.8 K, 12030 kPa	0.07148 W/m/K
242.91 K, 5853 kPa	0.06968 W/m/K
242.91 K, 5856 kPa	0.06976 W/m/K
242.92 K, 207 kPa	0.06801 W/m/K
242.93 K, 208 kPa	0.06804 W/m/K
243.11 K, 60298 kPa	0.08226 W/m/K
243.11 K, 68406 kPa	0.084 W/m/K
243.11 K, 68416 kPa	0.08398 W/m/K
243.12 K, 60300 kPa	0.082 W/m/K
243.13 K, 50796 kPa	0.08047 W/m/K
243.13 K, 50797 kPa	0.08042 W/m/K
243.16 K, 41981 kPa	0.07861 W/m/K
243.16 K, 41982 kPa	0.07868 W/m/K
243.17 K, 33693 kPa	0.07674 W/m/K
243.17 K, 33696 kPa	0.07679 W/m/K
243.25 K, 25695 kPa	0.07494 W/m/K
243.26 K, 25691 kPa	0.07494 W/m/K
243.36 K, 18758 kPa	0.07321 W/m/K
243.36 K, 18761 kPa	0.07324 W/m/K
243.39 K, 12032 kPa	0.07131 W/m/K
243.41 K, 12030 kPa	0.07139 W/m/K
243.52 K, 5859 kPa	0.0695 W/m/K and 0.06954 W/m/K
243.55 K, 209 kPa	0.06795 W/m/K
243.56 K, 209 kPa	0.06794 W/m/K
243.69 K, 68395 kPa	0.08376 W/m/K
243.69 K, 68403 kPa	0.08352 W/m/K
243.7 K, 60284 kPa	0.08212 W/m/K
243.71 K, 60287 kPa	0.08216 W/m/K
243.73 K, 50783 kPa	0.08028 W/m/K
243.74 K, 50794 kPa	0.08029 W/m/K
243.77 K, 41976 kPa	0.07861 W/m/K
243.77 K, 41985 kPa	0.07849 W/m/K
243.8 K, 33690 kPa	0.07668 W/m/K
243.8 K, 33707 kPa	0.07668 W/m/K
271.75 K, 5167 kPa	0.06405 W/m/K
271.76 K, 5170 kPa	0.06371 W/m/K
271.8 K, 431 kPa	0.06194 W/m/K
271.81 K, 411 kPa	0.06198 W/m/K
271.99 K, 24357 kPa	0.07109 W/m/K
271.99 K, 24380 kPa	0.07115 W/m/K
272.01 K, 32229 kPa	0.0734 W/m/K
272.01 K, 32230 kPa	0.07317 W/m/K
272.03 K, 40370 kPa	0.07538 W/m/K
272.04 K, 40373 kPa	0.07501 W/m/K
272.04 K, 46123 kPa	0.07637 W/m/K
272.05 K, 11155 kPa	0.06578 W/m/K
272.05 K, 11165 kPa	0.06595 W/m/K
272.05 K, 46118 kPa	0.07672 W/m/K
272.06 K, 17558 kPa	0.06827 W/m/K
272.07 K, 17554 kPa	0.06805 W/m/K
272.15 K, 5158 kPa	0.06391 W/m/K
272.16 K, 5173 kPa	0.06421 W/m/K
272.21 K, 418 kPa	0.06216 W/m/K
272.21 K, 421 kPa	0.06256 W/m/K
272.49 K, 24363 kPa	0.06931 W/m/K
272.5 K, 32236 kPa	0.07245 W/m/K
272.5 K, 32238 kPa	0.07194 W/m/K
272.5 K, 40381 kPa	0.07419 W/m/K
272.51 K, 40379 kPa	0.07408 W/m/K
272.52 K, 46113 kPa	0.0755 W/m/K
272.52 K, 46119 kPa	0.07509 W/m/K
272.58 K, 5167 kPa	0.06402 W/m/K
272.58 K, 11163 kPa	0.0662 W/m/K
272.58 K, 17548 kPa	0.06807 W/m/K
272.58 K, 17564 kPa	0.06792 W/m/K
